Results taken from ChEMBL document CHEMBL5113452, “Synthesis and biological evaluation of hybrids from optically active ring-opened 3-N-butylphthalide derivatives and 4-fluro-edaravone as potential anti-acute ischemic stroke agents” (Bioorg Med Chem, 2022).
Activity calls are given as the source filed them. The calls are words filed in the database; no cut-off is given here.

How the values were obtained:
[1] = Prodrug conversion in Sprague-Dawley rat plasma assessed as volume of distribution at steady state of metabolite S-NBP at 10 mg/kg, iv and measured upto 24 hrs by LC-MS/MS analysis; type: ADME, organism-based; settings: in vivo
[2] = Prodrug conversion in Sprague-Dawley rat plasma assessed as elimination rate constant of metabolite S-NBP at 10 mg/kg, iv and measured upto 24 hrs by LC-MS/MS analysis; type: ADME, organism-based; settings: in vivo
[3] = Prodrug conversion in Sprague-Dawley rat plasma assessed as Cmax of metabolite 4-F-Eda at 10 mg/kg, iv and measured upto 24 hrs by LC-MS/MS analysis; type: ADME, organism-based; design: time < 24 hrs, dose 10 mg/kg, route iv; settings: in vivo
[4] = Prodrug conversion in Sprague-Dawley rat plasma assessed as AUMC (0-infinity) of metabolite 4-F-Eda at 10 mg/kg, iv and measured upto 24 hrs by LC-MS/MS analysis; type: ADME, organism-based; settings: in vivo
[5] = Prodrug conversion in Sprague-Dawley rat plasma assessed as AUMC (0-t) of metabolite 4-F-Eda at 10 mg/kg, iv and measured upto 24 hrs by LC-MS/MS analysis; type: ADME, organism-based; settings: in vivo
[6] = Prodrug conversion in Sprague-Dawley rat plasma assessed as Cmax of metabolite S-NBP at 10 mg/kg, iv and measured upto 24 hrs by LC-MS/MS analysis; type: ADME, organism-based; design: time < 24 hrs, dose 10 mg/kg, route iv; settings: in vivo
[7] = system: Rattus norvegicus; experiment: Neuroprotective activity against transient middle cerebral artery occlusion induced ischemia stroke Sprague-Dawley rat model assessed as increase in neuro-fucntional score at 10 mg/kg, iv and measured after 24 hrs by longa's method; type: functional, organism-based
[8] = Prodrug conversion in Sprague-Dawley rat plasma assessed as MRT of metabolite 4-F-Eda at 10 mg/kg, iv and measured upto 24 hrs by LC-MS/MS analysis; type: ADME, organism-based; settings: in vivo
[9] = Toxicity in transient middle cerebral artery occlusion induced ischemia stroke Sprague-Dawley rat model assessed as change in body weight at 10 mg/kg, iv and measured after 24 hrs; type: organism-based; settings: in vivo
[10] = system: Rattus norvegicus; experiment: Neuroprotective activity against transient middle cerebral artery occlusion induced cerebral infraction Sprague-Dawley rat model assessed as decrease in brain edema at 10 mg/kg, iv and measured after 24 hrs; type: functional; design: scale not given: the % may be the effect or the level left
[11] = Prodrug conversion in Sprague-Dawley rat plasma assessed as C0 of metabolite 4-F-Eda at 10 mg/kg, iv and measured upto 24 hrs by LC-MS/MS analysis; type: ADME, organism-based; settings: in vivo
[12] = Prodrug conversion in Sprague-Dawley rat plasma assessed as AUC (0-t) of metabolite 4-F-Eda at 10 mg/kg, iv and measured upto 24 hrs by LC-MS/MS analysis; type: ADME, organism-based; design: dose 10 mg/kg, time < 24 hrs, route iv; settings: in vivo
[13] = Prodrug conversion in Sprague-Dawley rat plasma assessed as AUC (0-infinity) of metabolite S-NBP at 10 mg/kg, iv and measured upto 24 hrs by LC-MS/MS analysis; type: ADME, organism-based; design: dose 10 mg/kg, time < 24 hrs, route iv; settings: in vivo
[14] = Prodrug conversion in Sprague-Dawley rat plasma assessed as elimination rate constant of metabolite 4-F-Eda at 10 mg/kg, iv and measured upto 24 hrs by LC-MS/MS analysis; type: ADME, organism-based; settings: in vivo
[15] = Prodrug conversion in Sprague-Dawley rat plasma assessed as AUC (0-t) of metabolite S-NBP at 10 mg/kg, iv and measured upto 24 hrs by LC-MS/MS analysis; type: ADME, organism-based; design: time < 24 hrs, dose 10 mg/kg, route iv; settings: in vivo
[16] = Prodrug conversion in Sprague-Dawley rat plasma assessed as volume of distribution at steady state of metabolite 4-F-Eda at 10 mg/kg, iv and measured upto 24 hrs by LC-MS/MS analysis; type: ADME, organism-based; settings: in vivo
[17] = Prodrug conversion in Sprague-Dawley rat plasma assessed as MRT of metabolite S-NBP at 10 mg/kg, iv and measured upto 24 hrs by LC-MS/MS analysis; type: ADME, organism-based; settings: in vivo
[18] = Prodrug conversion in Sprague-Dawley rat plasma assessed as AUMC (0-t) of metabolite S-NBP at 10 mg/kg, iv and measured upto 24 hrs by LC-MS/MS analysis; type: ADME, organism-based; settings: in vivo
[19] = Prodrug conversion in Sprague-Dawley rat plasma assessed as AUMC (0-infinity) of metabolite S-NBP at 10 mg/kg, iv and measured upto 24 hrs by LC-MS/MS analysis; type: ADME, organism-based; settings: in vivo
[20] = Prodrug conversion in Sprague-Dawley rat plasma assessed as C0 of metabolite S-NBP at 10 mg/kg, iv and measured upto 24 hrs by LC-MS/MS analysis; type: ADME, organism-based; settings: in vivo
[21] = Prodrug conversion in Sprague-Dawley rat plasma assessed as half life of metabolite S-NBP at 10 mg/kg, iv and measured upto 24 hrs by LC-MS/MS analysis; type: ADME, organism-based; settings: in vivo
[22] = system: Rattus norvegicus; experiment: Neuroprotective activity against transient middle cerebral artery occlusion induced cerebral infraction Sprague-Dawley rat model assessed as decrease in cerebral infraction volume at 10 mg/kg, iv and measured after 24 hrs by TTC staining based assay; type: functional; design: scale not given: the % may be the effect or the level left
[23] = Prodrug conversion in Sprague-Dawley rat plasma assessed as S-NBP metabolite formation at 10 mg/kg, iv and measured upto 24 hrs by LC-MS/MS analysis; type: ADME, organism-based; settings: in vivo
[24] = Prodrug conversion in Sprague-Dawley rat plasma assessed as AUC (0-infinity) of metabolite 4-F-Eda at 10 mg/kg, iv and measured upto 24 hrs by LC-MS/MS analysis; type: ADME, organism-based; design: dose 10 mg/kg, time < 24 hrs, route iv; settings: in vivo
[25] = Metabolic stability in rat plasma assessed as half life at 200 uM and measured upto 24 hrs by HPLC analysis; type: ADME, cell-free
[26] = Prodrug conversion in Sprague-Dawley rat plasma assessed as half life of metabolite 4-F-Eda at 10 mg/kg, iv and measured upto 24 hrs by LC-MS/MS analysis; type: ADME, organism-based; settings: in vivo
[27] = Metabolic stability in rat liver microsomes assessed as half life at 20 mM and measured upto 120 mins by HPLC analysis; type: ADME, Microsome
[28] = Prodrug conversion in Sprague-Dawley rat plasma assessed as 4-F-Eda metabolite formation at 10 mg/kg, iv and measured upto 24 hrs by LC-MS/MS analysis; type: ADME, organism-based; settings: in vivo

## CCCC[C@H](OC(C)=O)c1ccccc1C(=O)Oc1cc(C)nn1-c1ccc(F)cc1
[1]
  Vdss: 16.1 L/kg
[2]
  Kel: 0.123 h⁻¹
[3]
  Cmax: 5569 ng/mL
[4]
  AUMC: 5109 hr.hr.ng/ml
[5]
  AUMCt: 4095 hr.hr.ng/ml
[6]
  Cmax: 3242 ng/mL
[7]
  Activity: Active
[8]
  MRT: 1.77 h
[9]
  Activity: Non-Toxic
[10]
  Activity: 13.96%
[11]
  C0: 8328 ng/mL
[12]
  AUCt: 2958 ng·h/mL
[13]
  AUC: 2819 ng·h/mL
[14]
  Kel: 0.143 h⁻¹
[15]
  AUCt: 2740 ng·h/mL
[16]
  Vdss: 6.18 L/kg
[17]
  MRT: 4.45 h
[18]
  AUMCt: 9914 hr.hr.ng/ml
[19]
  AUMC: 12474 hr.hr.ng/ml
[20]
  C0: 4653 ng/mL
[21]
  t1/2: 5.69 h
[22]
  Activity: 77.85%
[23]
  Drug metabolism: Metabolite_Detected
[24]
  AUC: 2990 ng·h/mL
[25]
  half-life at 200 µM: 17 h
[26]
  t1/2: 5.11 h
[27]
  half-life: 0.833 h
[28]
  Drug metabolism: Metabolite_Detected
